PubChem BioAssay AID192 (DTP/NCI, 2004)
Toxic doses and inconclusive results are not listed.

System: BDF1 mice, B16 melanoma ip, median survival T/C
Assay: NCI In Vivo Anticancer Drug Screen. Data for tumor model B16 Melanoma (intraperitoneal) in B6D2F1 (BDF1) mice
Settings: endpoint: median survival time, higher = longer survival
How it was run: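 Tumor-bearing mice received test compound or vehicle. Survival or tumor size was then measured in both groups. The treated-group figure was divided by the control-group figure.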

[1] = dose: 50.0 mg/kg/injection, schedule: Q01DX009 (ip), vehicle: saline with Tween-80
[2] = dose: 100.0 mg/kg/injection, schedule: Q01DX009 (ip), vehicle: Klucel (hydroxypropylcellulose) (HPC)
[3] = dose: 200.0 mg/kg/injection, schedule: Q01DX009 (ip), vehicle: Klucel (hydroxypropylcellulose) (HPC)
[4] = dose: 400.0 mg/kg/injection, schedule: Q01DX009 (ip), vehicle: Klucel (hydroxypropylcellulose) (HPC)
[5] = dose: 100.0 mg/kg/injection, schedule: Q04DX003 (ip), vehicle: saline with Tween-80
[6] = dose: 200.0 mg/kg/injection, schedule: Q04DX003 (ip), vehicle: saline with Tween-80

In the case of Cc1c(C)c([N+](=O)[O-])c(Br)c(C)c1[N+](=O)[O-], the T/C (dose: 100.0 mg/kg/injection, schedule: Q04DX003 (ip), vehicle: Klucel (hydroxypropylcellulose) (HPC)) is reported as 91 % of control and the T/C (dose: 200.0 mg/kg/injection, schedule: Q04DX003 (ip), vehicle: Klucel (hydroxypropylcellulose) (HPC)) is reported as 98 % of control.

In the case of O=C(NC(Cc1ccccc1)C(=O)NC(Cc1c[nH]c2ccccc12)C(=O)O)OCc1ccccc1 (configuration not stated), the T/C [1] is reported as 98 % of control, the T/C (dose: 100.0 mg/kg/injection, schedule: Q01DX009 (ip), vehicle: saline with Tween-80) is reported as 100 % of control and the T/C (dose: 200.0 mg/kg/injection, schedule: Q01DX009 (ip), vehicle: saline with Tween-80) is reported as 94 % of control.

For O=C(O)C(O)C(=O)O.[NH-]C1CCCCC1[NH-].[Pt+2], the T/C (dose: 20.0 mg/kg/injection, schedule: Q01DX009 (ip), vehicle: other) was 161 % of control and the T/C (dose: 40.0 mg/kg/injection, schedule: Q01DX009 (ip), vehicle: other) was 150 % of control.

In the case of O=c1c2ccccc2sc2ccc(Br)cc12, the T/C [2] is reported as 110 % of control, the T/C [3] is reported as 100 % of control and the T/C [4] is reported as 102 % of control.

In the case of O=C(O)CNc1ccccc1C(=O)O, the T/C (dose: 50.0 mg/kg/injection, schedule: Q01DX009 (ip), vehicle: Klucel (hydroxypropylcellulose) (HPC)) is reported as 108 % of control, the T/C [2] is reported as 94 % of control and the T/C [3] is reported as 91 % of control.

Cn1c(C(Cl)Cl)nc2ccccc2c1=O was tested, and the T/C (dose: 12.5 mg/kg/injection, schedule: Q01DX009 (ip), vehicle: saline with Tween-80) was 110 % of control, the T/C (dose: 25.0 mg/kg/injection, schedule: Q01DX009 (ip), vehicle: saline with Tween-80) was 105 % of control and the T/C [1] was 105 % of control.

O=C(Nc1ccc(Br)cc1)c1ccc(Cl)c(Cl)c1 was tested, and the T/C [2] was 118 % of control, the T/C [3] was 114 % of control and the T/C [4] was 114 % of control.

With CCCCC(C=O)(C=C=C(C)C)CC (configuration not stated) the T/C [5] was 88 % of control and the T/C [6] was 95 % of control.

With CCOC(=O)c1ccc(NC(=O)Nc2nc(C)cs2)cc1 the T/C (dose: 25.0 mg/kg/injection, schedule: Q01DX009 (ip), vehicle: distilled water + Tween-80) was 111 % of control and the T/C (dose: 200.0 mg/kg/injection, schedule: Q01DX009 (ip), vehicle: distilled water + Tween-80) was 120 % of control.

For CC(=O)OC1COC(NC(=O)N(CCCl)N=O)C(OC(C)=O)C1OC(C)=O (configuration not stated), the T/C (dose: 0.18 mg/kg/injection, schedule: Q01DX009 (ip), vehicle: saline with Tween-80) was 106 % of control, the T/C (dose: 0.2 mg/kg/injection, schedule: Q01DX009 (ip), vehicle: saline with Tween-80) was 155 % of control and the T/C (dose: 0.37 mg/kg/injection, schedule: Q01DX009 (ip), vehicle: saline with Tween-80) was 118 % of control. For the same compound, the T/C (dose: 0.39 mg/kg/injection, schedule: Q01DX009 (ip), vehicle: saline with Tween-80) was 114 % of control, the T/C (dose: 1.5 mg/kg/injection, schedule: Q01DX009 (ip), vehicle: saline with Tween-80) was 168 % of control and the T/C (dose: 1.56 mg/kg/injection, schedule: Q01DX009 (ip), vehicle: saline with Tween-80) was 170 % of control. For the same compound, the T/C (dose: 3.0 mg/kg/injection, schedule: Q01DX009 (ip), vehicle: saline with Tween-80) was 173 % of control, the T/C (dose: 3.12 mg/kg/injection, schedule: Q01DX009 (ip), vehicle: saline with Tween-80) was 209 % of control and the T/C (dose: 6.0 mg/kg/injection, schedule: Q01DX009 (ip), vehicle: saline with Tween-80) was 162 % of control. The T/C (dose: 6.25 mg/kg/injection, schedule: Q01DX009 (ip), vehicle: saline with Tween-80) was 190 % of control.

In the case of CCC1CN2C(=N1)c1ccccc1-c1cc(Cl)ccc12 (configuration not stated), the T/C (dose: 6.25 mg/kg/injection, schedule: Q01DX009 (ip), vehicle: suspension in saline) is reported as 95 % of control, the T/C (dose: 10.0 mg/kg/injection, schedule: Q01DX009 (ip), vehicle: saline) is reported as 94 % of control and the T/C (dose: 12.5 mg/kg/injection, schedule: Q01DX009 (ip), vehicle: suspension in saline) is reported as 109 % of control. For the same compound, the T/C (dose: 20.0 mg/kg/injection, schedule: Q01DX009 (ip), vehicle: saline) was 118 % of control, the T/C (dose: 40.0 mg/kg/injection, schedule: Q01DX009 (ip), vehicle: saline) was 150 % of control and the T/C (dose: 50.0 mg/kg/injection, schedule: Q01DX009 (ip), vehicle: suspension in saline) was 157 % of control.

In the case of O=C(OCc1ccccc1)C(Cl)(Cl)Cl, the T/C [5] is reported as 105 % of control, the T/C [6] is reported as 100 % of control and the T/C (dose: 400.0 mg/kg/injection, schedule: Q04DX003 (ip), vehicle: saline with Tween-80) is reported as 102 % of control.
